Experimental data as given in patent US20260356846A1, “STATIN DERIVATIVES AND METHODS OF USING THE SAME” (The General Hospital Corporation, priority 2023, published 2026).
Where two headings read alike, the source gives them in different places.

Assays:
[1] = tested on: STMN2 (WT STMN2-NLuc SH-SY5Y cells); experiment: STMN2 nanoluciferase assay in WT SH-SY5Y cells (Table A: WT TDP-32; Table B: WT HD Luciferase); format: cell-based, human; conditions: Homo sapiens, SH-SY5Y, WT cell line; for maximal fold induction: Emax
Method: (§1) Neuroblastoma cells (ATCC) were cultured in DMEM/F12 (Gibco) supplemented with 10% fetal-bovine serum (Omega) and 1% penicillin-streptomycin (Gibco) at 37 °C with 5% CO2. For knockdown experiments, cells were transfected with SMARTpool ON-TARGETplus siRNA or control siRNA pool (D001810-10) (GE Dharmacon) at a final concentration of 50 nM, for 96 h in two doses (0, 24 h), after complexing with Lipofectamin RNAiMAX (Invitrogen) in Opti-MEM (Gibco) for 10 min.
(§2) WT and TDP-mut (N352S) SH-SY5Y cells were edited using CRISPR-Cas9 to express Nanoluciferase at the C-terminus of both endogenous STMN2 alleles. A single guided RNA targeting STMN2 C-terminus was designed (Benchling webtool) and cloned into pSpCas9-2A-green fluorescent protein (GFP) plasmid (px458-Addgene) using the BbsI restriction site. The sequence for guided RNA targeting STMN2 was: […]. For the repair template, overlapping fragments of 800 bp STMN2 homology arms flanking Nanoluciferase (NLuc, Promega) were generated and ligated into pUC57 backbone. A 42 bp GS-linker was also included 5′ to NLuc to prevent steric hindrance of the reporter to the final STMN2 exon. Fragments were ligated using Gibson Assembly and nucleofected simultaneously with pSpCas9-2A-GFP-gRNA plasmid using the Amaxa Nucleofector (assay A-023). Forty-eight hours following electroporation, cells were collected, and GFP-positive cells sorted and single-cell seeded into 96-well plates using the SH800S Sony cell sorter. Individual clones were expanded and DNA was extracted for PCR amplification of the STMN2 Ex5 genomic locus using primers within NLuc and outside the STMN2 5′ homology arm to confirm presence of the insert. The entire STMN2 coding region and all exon-intron junctions (>500-bp length of each intronic region) were then sequenced to verify the absence of any additional DNA alteration. qPCR analysis was performed with a wild-type isogenic SH-SY5Y cell line that had undergone the mutagenesis attempt but not acquired the insertion mutation during the original screening process.
(§3) TDP-mut STMN2-NLuc SH-SY5Y cells were used in small-molecule screening at ICCB-Longwood. 3000 cells/well were plated in white 384-well plates using a 50 ul sample volume. 24 hours after plating, compounds were added using 100 nl pin transfer. 24 hours later, 25 ul NLuc assay was added to each well according to manufacturer instructions (Promega, Cat #). Plates were shaken for 1 min prior to luminescence readings using EnVision2 machine. DMSO-only and WT STMN2-NLuc cells were included as negative and positive controls respectively on each plate, producing an average Z′score of ~0.7 across the screen. Each library plate was conducted in duplicate, and Z-scores calculated for each compound. For subsequent validation experiments, cell numbers in each well were quantified by hoescht staining at 1 μg/ml for 15 mins at 37C in black, clear bottom plates, prior to imaging at 4× using automated microscopy (ImageXpressMicro). Nuclei were then counted using a custom algorithm, and luciferase assay run as above. Luminescence results were then normalised against cell counts as RLU/cell.
(§4) Each compound was tested in triplicate in log doses ranging 0.01 μM−10 μM. The values are represented in luminescence normalized to the number of cells in the well, wherein darker grey correlates to higher RLU per cell and higher STMN2 protein expression.

[2] = tested on: STMN2 (TDP-mut (N352S) STMN2-NLuc SH-SY5Y cells); experiment: STMN2 nanoluciferase assay in TDP-43 mutant SH-SY5Y cells (Table A: mut TDP-43; Table B: mut HD Luciferase); format: cell-based, human; conditions: mutant TDP-43 cell line; for EC50: Homo sapiens, SH-SY5Y
Method: as §1, §2, §3, §4

[3] = Table B, read-out: EC50, WT HD Luciferase
[4] = Table B, read-out: EC50, mut HD Luciferase
[5] = Table A, read-out: EC50, WT TDP-32
[6] = Table A, read-out: EC50, mut TDP-43

SMILES	EC50 [1, 3] [nM]	EC50 [2, 4] [nM]	HD Luciferase (mut, Emax) ([2]; Table B)	maximal fold induction ([1]; Table B)	EC50 [1, 5] [nM]	EC50 [2, 6] [nM]
Cc1csc2c(-c3ccc(F)cc3)c(CC[C@H](O)C[C@@H](O)CC(=O)O)c(C3CC3)nc12 [Example I-33, (3R,5S)-7-(5-cyclopropyl-7-(4-fluorophenyl)-3-methylthieno[3,2-b]pyridin-6-yl)-3,5-dihydroxyheptanoic acid]	100 to 500	100 to 500	** (means≥1.25 and <1.5)			
Cc1csc2nc(C3CC3)c(/C=C/[C@@H](O)C[C@@H](O)CC(=O)O)c(-c3ccc(Cl)cc3)c12 [Example I-34, (3R,5S,E)-7-(4-(4-chlorophenyl)-6-cyclopropyl-3-methylthieno[2,3-b]pyridin-5-yl)-3,5-dihydroxyhept-6-enoic acid]	100 to 500	50 to 100		1.5 to 1.75		
COCc1c(C23CC(C2)C3)nc(C2CC2)c(/C=C/[C@@H](O)C[C@@H](O)CC(=O)O)c1-c1ccc(F)cc1Cl [II-1, (3R,5S,E)-7-(6-(bicyclo[1.1.1]pentan-1-yl)-4-(2-chloro-4-fluorophenyl)-2-cyclopropyl-5-(methoxymethyl)pyridin-3-yl)-3,5-dihydroxyhept-6-enoic acid]	10 to 50	10 to 50	**** (means≥1.5 and <1.75)		100 to 500	100 to 500
COCc1c(C23CC(C2)C3)nc(C2CC2)c(/C=C/[C@@H](O)C[C@@H](O)CC(=O)O)c1-c1ccc(F)cc1 [II-2, (3R,5S,E)-7-(6-(bicyclo[1.1.1]pentan-1-yl)-2-cyclopropyl-4-(4-fluorophenyl)-5-(methoxymethyl)pyridin-3-yl)-3,5-dihydroxyhept-6-enoic acid]	≤ 10	≤ 10			100 to 500	≤ 100
COCc1c(C2CCC2)nc(C2CCC2)c(/C=C/[C@@H](O)C[C@@H](O)CC(=O)O)c1-c1ccc(F)cc1Cl [II-3, (3R,5S,E)-7-(4-(2-chloro-4-fluorophenyl)-2,6-dicyclobutyl-5-(methoxymethyl)pyridin-3-yl)-3,5-dihydroxyhept-6-enoic acid]	100 to 500	100 to 500	** (means≥1.25 and <1.5)	1.25 to 1.5	500 to 1000	500 to 1000
COCc1c(C2CCC2)nc(C2CC2)c(/C=C/[C@@H](O)C[C@@H](O)CC(=O)O)c1-c1ccc(F)cc1Cl [II-4, (3R,5S,E)-7-(4-(2-chloro-4-fluorophenyl)-6-cyclobutyl-2-cyclopropyl-5-(methoxymethyl)pyridin-3-yl)-3,5-dihydroxyhept-6-enoic acid]	≤ 10	≤ 10			≤ 100	≤ 100
COCc1c(C2CCC2)nc(C2CC2)c(/C=C/[C@@H](O)C[C@@H](O)CC(=O)O)c1-c1ccc(F)cc1 [II-5, (3R,5S,E)-7-(6-cyclobutyl-2-cyclopropyl-4-(4-fluorophenyl)-5-(methoxymethyl)pyridin-3-yl)-3,5-dihydroxy hept-6-enoic acid]	≤ 10	≤ 10			≤ 100	≤ 100
COCc1c(C2CCC2)nc(C2CCC2)c(/C=C/[C@@H](O)C[C@@H](O)CC(=O)O)c1-c1ccc(F)cc1 [II-6, (3R,5S,E)-7-(2,6-dicyclobutyl-4-(4-fluorophenyl)-5-(methoxymethyl)pyridin-3-yl)-3,5-dihydroxyhept-6-enoic acid]	10 to 50	10 to 50				
O=C(O)C[C@H](O)C[C@H](O)/C=C/c1c(-c2ccc(F)cc2Cl)cc(C2CCC2)nc1C1CC1 [II-7, (3R,5S,E)-7-(4-(2-chloro-4-fluorophenyl)-6-cyclobutyl-2-cyclopropylpyridin-3-yl)-3,5-dihydroxyhept-6-enoic acid]	10 to 50	50 to 100				
O=C(O)C[C@H](O)C[C@H](O)/C=C/c1c(-c2ccc(F)cc2Cl)cc(C2CC2)nc1C1CC1 [II-8, (3R,5S,E)-7-(4-(2-chloro-4-fluorophenyl)-2,6-dicyclopropylpyridin-3-yl)-3,5-dihydroxyhept-6-enoic acid]	10 to 50	10 to 50			100 to 500	100 to 500
COCc1c(C2CC2)nc(C2CC2)c(/C=C/[C@@H](O)C[C@@H](O)CC(=O)O)c1-c1ccc(F)cc1Cl [II-9, (3R,5S,E)-7-(4-(2-chloro-4-fluorophenyl)-2,6-dicyclopropyl-5-(methoxymethyl)pyridin-3-yl)-3,5-dihydroxyhept-6-enoic acid]	≤ 10	≤ 10		1.5 to 1.75	≤ 100	≤ 100
COCc1c(C2CC2)nc(C2CC2)c(/C=C/[C@@H](O)C[C@@H](O)CC(=O)O)c1-c1ccc(F)cc1C [II-10, (3R,5S,E)-7-(2,6-dicyclopropyl-4-(4-fluoro-2-methylphenyl)-5-(methoxymethyl)pyridin-3-yl)-3,5-dihydroxyhept-6-enoic acid]	≤ 10	≤ 10				
Cc1cc(F)ccc1-c1cc(C2CC2)nc(C2CC2)c1/C=C/[C@@H](O)C[C@@H](O)CC(=O)O [II-12, (3R,5S,E)-7-(2,6-dicyclopropyl-4-(4-fluoro-2-methylphenyl)pyridin-3-yl)-3,5-dihydroxyhept-6-enoic acid]	≤ 10	≤ 10				
COCc1c(C2CC2)nc(C2CC2)c(/C=C/[C@@H](O)C[C@@H](O)CC(=O)O)c1-c1cc(F)ccc1Cl [II-13, (3R,5S,E)-7-(4-(2-chloro-5-fluorophenyl)-2,6-dicyclopropyl-5-(methoxymethyl)pyridin-3-yl)-3,5-dihydroxyhept-6-enoic acid]	10 to 50	10 to 50				
Cc1cc(F)ccc1-c1cc(C23CC(C2)C3)nc(C2CC2)c1/C=C/[C@@H](O)C[C@@H](O)CC(=O)O [II-14, (3R,5S,E)-7-(6-(bicyclo[1.1.1]pentan-1-yl)-2-cyclopropyl-4-(4-fluoro-2-methylphenyl)pyridin-3-yl)-3,5-dihydroxyhept-6-enoic acid]	100 to 500	100 to 500				
O=C(O)C[C@H](O)C[C@H](O)/C=C/c1c(-c2ccc(F)cc2)cc(C23CC(C2)C3)nc1C1CC1 [II-16, (3R,5S,E)-7-(6-(bicyclo[1.1.1]pentan-1-yl)-2-cyclopropyl-4-(4-fluorophenyl)pyridin-3-yl)-3,5-dihydroxyhept-6-enoic acid]	50 to 100	100 to 500	** (means≥1.25 and <1.5)			
COCc1c(C2CC2)nc(C2CC2)c(/C=C/[C@@H](O)C[C@@H](O)CC(=O)O)c1-c1c(C)cc(F)cc1F [II-17, (3R,5S,E)-7-(2,6-dicyclopropyl-4-(2,4-difluoro-6-methylphenyl)-5-(methoxymethyl)pyridin-3-yl)-3,5-dihydroxyhept-6-enoic acid]	≤ 10	≤ 10		1.5 to 1.75		
COCc1c(C2CC2)nc(C2CC2)c(/C=C/[C@@H](O)C[C@@H](O)CC(=O)O)c1-c1c(C)cccc1F [II-18, (3R,5S,E)-7-(2,6-dicyclopropyl-4-(2-fluoro-6-methylphenyl)-5-(methoxymethyl)pyridin-3-yl)-3,5-dihydroxyhept-6-enoic acid]	10 to 50	10 to 50				
COCc1c(C2CC2)nc(C2CC2)c(/C=C/[C@@H](O)C[C@@H](O)CC(=O)O)c1-c1ccc(Cl)cc1F [II-19, (3R,5S,E)-7-(4-(4-chloro-2-fluorophenyl)-2,6-dicyclopropyl-5-(methoxymethyl)pyridin-3-yl)-3,5-dihydroxyhept-6-enoic acid]	10 to 50	10 to 50				
